According to patent US11135234B2, “Effective aminoglycoside antibiotic for multidrug-resistant bacteria” (MICROBIAL CHEMISTRY RESEARCH FOUNDATION, priority 2015, dated 2021):
In brackets after ≈: the same amount, converted by molar mass.

Columns and labels:
[1] = test system: S. aureus RN4220; experiment: MIC, agar plate dilution method, S. aureus RN4220; assay type: cell-based, Staphylococcus aureus; settings: for minimal inhibitory concentration (MIC): S. aureus RN4220, Sensitive bacterium; for MIC: Staphylococcus aureus, RN4220, S. aureus RN4220, Sensitive bacterium, read-out: minimal inhibitory concentration (MIC)
Protocol: (§1) As for the representative compounds of a new aminoglycoside antibiotic of the present invention described in Examples, the minimal inhibitory concentration (MIC, μg/mL) was measured for various assay strains of bacteria using an agar plate dilution method in accordance with the method described in the Japan Society of Chemotherapy.

[2] = test system: S. aureus RN4220/pMS520; experiment: MIC, agar plate dilution method, S. aureus RN4220/pMS520; assay type: cell-based, Staphylococcus aureus; settings: for minimal inhibitory concentration (MIC): S. aureus RN4220/pMS520, MRSA; for MIC: Staphylococcus aureus, MRSA, read-out: minimal inhibitory concentration (MIC), S. aureus RN4220/pMS520, MRSA
Protocol: as §1

[3] = test system: S. aureus MF490; experiment: MIC, agar plate dilution method, S. aureus MF490; assay type: cell-based, Staphylococcus aureus; settings: for minimal inhibitory concentration (MIC): S. aureus MF490, MRSA; for MIC: Staphylococcus aureus, MRSA, read-out: minimal inhibitory concentration (MIC)
Protocol: as §1

[4] = test system: E. faecium ATCC19434; experiment: MIC, agar plate dilution method, E. faecium ATCC19434; assay type: cell-based, Enterococcus faecium; settings: for minimal inhibitory concentration (MIC): E. faecium ATCC19434; for MIC: Enterococcus faecium, ATCC19434, E. faecium ATCC19434, read-out: minimal inhibitory concentration (MIC)
Protocol: as §1

[5] = test system: E. coli JM109/pMW218; experiment: MIC, agar plate dilution method, E. coli JM109/pMW218; assay type: cell-based, Escherichia coli; settings: for minimal inhibitory concentration (MIC): E. coli JM109/pMW218, Sensitive bacterium; for MIC: Escherichia coli, JM109/PMW218, E. coli JM109/pMW218, Sensitive bacterium, read-out: minimal inhibitory concentration (MIC)
Protocol: as §1

[6] = test system: K. pneumoniae ATCC BAA-1705; experiment: MIC, agar plate dilution method, K. pneumoniae ATCC BAA-1705; assay type: cell-based, Klebsiella pneumoniae; settings: for minimal inhibitory concentration (MIC): K. pneumoniae ATCC BAA-1705, KPC-producing strain; for MIC: Klebsiella pneumoniae, ATCCBAA1705, K. pneumoniae ATCC BAA-1705, KPC-producing strain, read-out: minimal inhibitory concentration (MIC)
Protocol: as §1

[7] = test system: K. pneumoniae ATCC BAA-2146; experiment: MIC, agar plate dilution method, K. pneumoniae ATCC BAA-2146; assay type: cell-based, Klebsiella pneumoniae; settings: for minimal inhibitory concentration (MIC): K. pneumoniae ATCC BAA-2146, NDM-producing strain; for MIC: Klebsiella pneumoniae, ATCCBAA2146, K. pneumoniae ATCC BAA-2146, NDM-producing strain, read-out: minimal inhibitory concentration (MIC)
Protocol: as §1

[8] = test system: A. baumannii ATCC BAA-1710; experiment: MIC, agar plate dilution method, A. baumannii ATCC BAA-1710; assay type: cell-based, Acinetobacter baumannii; settings: for minimal inhibitory concentration (MIC): A. baumannii ATCC BAA-1710, MDRA; for MIC: Acinetobacter baumannii, ATCCBAA1710, A. baumannii ATCC BAA-1710, MDRA, read-out: minimal inhibitory concentration (MIC)
Protocol: as §1

[9] = test system: S. marcescens TH-0447; experiment: MIC, agar plate dilution method, S. marcescens TH-0447; assay type: cell-based, Serratia marcescens; settings: for minimal inhibitory concentration (MIC): S. marcescens TH-0447, AMK-resistant; for MIC: Serratia marcescens, TH0447, S. marcescens TH-0447, AMK-resistant, read-out: minimal inhibitory concentration (MIC)
Protocol: as §1

[10] = test system: S. marcescens GN6944; experiment: MIC, agar plate dilution method, S. marcescens GN6944; assay type: cell-based, Serratia marcescens; settings: S. marcescens GN6944, GM-resistant; for MIC: Serratia marcescens, read-out: minimal inhibitory concentration (MIC)
Protocol: as §1

[11] = test system: P. aeruginosa PAO1; experiment: MIC, agar plate dilution method, P. aeruginosa PAO1; assay type: cell-based, Pseudomonas aeruginosa; settings: for minimal inhibitory concentration (MIC): P. aeruginosa PAO1, Sensitive bacterium; for MIC: Pseudomonas aeruginosa, PAO1, P. aeruginosa PAO1, Sensitive bacterium, read-out: minimal inhibitory concentration (MIC)
Protocol: as §1

[12] = test system: P. aeruginosa PAO1/GN315; experiment: MIC, agar plate dilution method, P. aeruginosa PAO1/GN315; assay type: cell-based, Pseudomonas aeruginosa; settings: for minimal inhibitory concentration (MIC): P. aeruginosa PAO1/GN315, AMK-resistant; for MIC: Pseudomonas aeruginosa, read-out: minimal inhibitory concentration (MIC), P. aeruginosa PAO1/GN315, AMK-resistant
Protocol: as §1

[13] = test system: P. aeruginosa MSC17707; experiment: MIC, agar plate dilution method, P. aeruginosa MSC17707; assay type: cell-based, Pseudomonas aeruginosa; settings: for minimal inhibitory concentration (MIC): P. aeruginosa MSC17707, AMK-resistant; for MIC: Pseudomonas aeruginosa, MSC17707, P. aeruginosa MSC17707, AMK-resistant, read-out: minimal inhibitory concentration (MIC)
Protocol: as §1

[14] = test system: P. aeruginosa MSC01035; experiment: MIC, agar plate dilution method, P. aeruginosa MSC01035; assay type: cell-based, Pseudomonas aeruginosa; settings: P. aeruginosa MSC01035, ABK-resistant; for MIC: Pseudomonas aeruginosa, read-out: minimal inhibitory concentration (MIC)
Protocol: as §1

| SMILES | minimal inhibitory concentration (MIC) [1] [µg/mL] | minimal inhibitory concentration (MIC) [2] [µg/mL] | minimal inhibitory concentration (MIC) [3] [µg/mL] | minimal inhibitory concentration (MIC) [4] [µg/mL] | minimal inhibitory concentration (MIC) [5] [µg/mL] | minimal inhibitory concentration (MIC) [6] [µg/mL] | minimal inhibitory concentration (MIC) [7] [µg/mL] | minimal inhibitory concentration (MIC) [8] [µg/mL] | minimal inhibitory concentration (MIC) [9] [µg/mL] | minimal inhibitory concentration (MIC) [10] [µg/mL] | minimal inhibitory concentration (MIC) [11] [µg/mL] | minimal inhibitory concentration (MIC) [12] [µg/mL] | minimal inhibitory concentration (MIC) [13] [µg/mL] | minimal inhibitory concentration (MIC) [14] [µg/mL] | MIC [1] [µg/mL] | MIC [2] [µg/mL] | MIC [3] [µg/mL] | MIC [4] [µg/mL] | MIC [5] [µg/mL] | MIC [6] [µg/mL] | further results |
| --- | --- | --- | --- | --- | --- | --- | --- | --- | --- | --- | --- | --- | --- | --- | --- | --- | --- | --- | --- | --- | --- |
| CNC1C(OC2OC(CO)C(N)CC2O)OC2CC(N)C(OC3C(N)CC(N)C(O)C3O)OC2C1O (stereo not drawn) [Compound M9, 3″-deoxy-5-epiapramycin] | 1 (≈ 1.91 µM) | 2 (≈ 3.82 µM) | 4 (≈ 7.64 µM) | 8 (≈ 15.3 µM) | 1 (≈ 1.91 µM) | 1 (≈ 1.91 µM) | 1 (≈ 1.91 µM) | 4 (≈ 7.64 µM) | 4 (≈ 7.64 µM) | 4 (≈ 7.64 µM) | 2 (≈ 3.82 µM) | 4 (≈ 7.64 µM) | 4 (≈ 7.64 µM) | 4 (≈ 7.64 µM) |  |  |  |  |  |  |  |
| CNC1C(O[C@H]2OC(CO)[C@@H](NC(=N)N)[C@H](O)C2O)O[C@H]2CC(N)[C@@H](O[C@@H]3C(N)C[C@@H](N)C(O)[C@H]3F)OC2C1O (stereo partly drawn) [Compound S1-k, 4″-deamino-5-deoxy-5-epi-5-fluoro-4″-guanidinoapramycin] |  |  |  |  |  |  |  |  |  |  |  |  |  |  | 1 (≈ 1.71 µM) | 1 (≈ 1.71 µM) | 4 (≈ 6.85 µM) | 16 (≈ 27.4 µM) | 0.5 (≈ 0.857 µM) | 1 (≈ 1.71 µM) | MIC [7]: 1 µg/mL (≈ 1.71 µM); MIC [8]: 8 µg/mL (≈ 13.7 µM); MIC [9]: 8 µg/mL (≈ 13.7 µM); MIC [10]: 4 µg/mL (≈ 6.85 µM); MIC [11]: 8 µg/mL (≈ 13.7 µM); MIC [12]: 8 µg/mL (≈ 13.7 µM); MIC [13]: 8 µg/mL (≈ 13.7 µM); MIC [14]: 8 µg/mL (≈ 13.7 µM) |
| CNC1C(O[C@H]2OC(CO)[C@@H](NCCCN)[C@H](O)C2O)O[C@H]2CC(N)[C@@H](O[C@@H]3C(N)C[C@@H](N)C(O)[C@H]3O)OC2C1O (stereo partly drawn) [Compound S1-h, 4″-N-(3-aminopropyl)-5-epiapramycin] | 2 (≈ 3.35 µM) | 2 (≈ 3.35 µM) | 8 (≈ 13.4 µM) | 16 (≈ 26.8 µM) | 1 (≈ 1.68 µM) | 2 (≈ 3.35 µM) | 1 (≈ 1.68 µM) | 8 (≈ 13.4 µM) | 8 (≈ 13.4 µM) | 8 (≈ 13.4 µM) | 4 (≈ 6.7 µM) | 4 (≈ 6.7 µM) | 4 (≈ 6.7 µM) | 8 (≈ 13.4 µM) |  |  |  |  |  |  |  |
| CN[C@@H]1[C@@H](O[C@H]2O[C@H](CO)[C@@H](N)[C@@H](O)[C@H]2O)O[C@H]2C[C@@H](N)[C@@H](O[C@H]3[C@@H](O)[C@@H](O)[C@H](N)C[C@@H]3N)O[C@@H]2[C@@H]1O [Compound P4, 5,3″-diepiapramycin] | 2 (≈ 3.71 µM) | 2 (≈ 3.71 µM) | 4 (≈ 7.41 µM) | 16 (≈ 29.7 µM) | 2 (≈ 3.71 µM) | 2 (≈ 3.71 µM) | 2 (≈ 3.71 µM) | 8 (≈ 14.8 µM) | 8 (≈ 14.8 µM) | 8 (≈ 14.8 µM) | 4 (≈ 7.41 µM) | 4 (≈ 7.41 µM) | 4 (≈ 7.41 µM) | 8 (≈ 14.8 µM) |  |  |  |  |  |  |  |
| CN[C@@H]1[C@@H](O[C@H]2O[C@H](CO)[C@@H](N)C[C@H]2O)O[C@H]2C[C@@H](N)[C@@H](O[C@H]3C[C@@H](O)[C@H](N)C[C@@H]3N)O[C@@H]2[C@@H]1O [Compound M7, 5,3″-dideoxyapramycin] | 2 (≈ 3.94 µM) | 1 (≈ 1.97 µM) | 4 (≈ 7.88 µM) | 16 (≈ 31.5 µM) | 0.5 (≈ 0.985 µM) | 1 (≈ 1.97 µM) | 1 (≈ 1.97 µM) | 8 (≈ 15.8 µM) | 8 (≈ 15.8 µM) | 4 (≈ 7.88 µM) | 4 (≈ 7.88 µM) | 4 (≈ 7.88 µM) | 4 (≈ 7.88 µM) | 4 (≈ 7.88 µM) |  |  |  |  |  |  |  |
| CNC1C(OC2OC(C)C(N)C(O)C2O)OC2CC(N)C(OC3C(N)CC(N)CC3O)OC2C1O (stereo not drawn) [Compound Q4, 6,6″-dideoxy-5-epiapramycin] | 2 (≈ 3.94 µM) | 1 (≈ 1.97 µM) | 4 (≈ 7.88 µM) | 8 (≈ 15.8 µM) | 0.5 (≈ 0.985 µM) | 1 (≈ 1.97 µM) | 1 (≈ 1.97 µM) | 8 (≈ 15.8 µM) | 4 (≈ 7.88 µM) | 4 (≈ 7.88 µM) | 4 (≈ 7.88 µM) | 4 (≈ 7.88 µM) | 8 (≈ 15.8 µM) | 8 (≈ 15.8 µM) |  |  |  |  |  |  |  |
| CNC1C(OC2OC(CO)C(N)C(O)C2O)OC2CC(N)C(OC3C(N)CC(N)C(O)C3F)OC2C1O (stereo not drawn) [Compound B7, 5-deoxy-5-epi-5-fluoroapramycin] | 4 (≈ 7.39 µM) | 4 (≈ 7.39 µM) | 16 (≈ 29.5 µM) | 32 (≈ 59.1 µM) | 1 (≈ 1.85 µM) | 2 (≈ 3.69 µM) | 2 (≈ 3.69 µM) | 8 (≈ 14.8 µM) | 16 (≈ 29.5 µM) | 8 (≈ 14.8 µM) | 4 (≈ 7.39 µM) | 8 (≈ 14.8 µM) | 8 (≈ 14.8 µM) | 8 (≈ 14.8 µM) |  |  |  |  |  |  |  |
| CNC1C(O[C@H]2OC(CO)[C@@H](NCCCN)[C@H](O)C2O)O[C@H]2CC(N)[C@@H](O[C@H]3CC(O)[C@H](N)CC3N)OC2C1O (stereo partly drawn) [Compound S1-c, 4″-N-(3-aminopropyl)-5-deoxyapramycin] |  |  |  |  |  |  |  |  |  |  |  |  |  |  | 2 (≈ 3.44 µM) | 2 (≈ 3.44 µM) | 4 (≈ 6.89 µM) | 8 (≈ 13.8 µM) | 1 (≈ 1.72 µM) | 1 (≈ 1.72 µM) | MIC [7]: 1 µg/mL (≈ 1.72 µM); MIC [8]: 8 µg/mL (≈ 13.8 µM); MIC [9]: 8 µg/mL (≈ 13.8 µM); MIC [10]: 8 µg/mL (≈ 13.8 µM); MIC [11]: 4 µg/mL (≈ 6.89 µM); MIC [12]: 4 µg/mL (≈ 6.89 µM); MIC [13]: 8 µg/mL (≈ 13.8 µM); MIC [14]: 8 µg/mL (≈ 13.8 µM) |
| CNC1C(O[C@H]2OC(CO)[C@@H](NC(=O)CCN)[C@H](O)C2O)O[C@H]2C[C@H](N)[C@@H](O[C@@H]3C(N)C[C@@H](N)C(O)[C@H]3O)OC2C1O (stereo partly drawn) [Compound V1-m, 4″-N-(β-alanyl)-5-epiapramycin] |  |  |  |  |  |  |  |  |  |  |  |  |  |  | 2 (≈ 3.28 µM) | 2 (≈ 3.28 µM) | 8 (≈ 13.1 µM) | 16 (≈ 26.2 µM) | 1 (≈ 1.64 µM) | 1 (≈ 1.64 µM) | MIC [7]: 1 µg/mL (≈ 1.64 µM); MIC [8]: 8 µg/mL (≈ 13.1 µM); MIC [9]: 8 µg/mL (≈ 13.1 µM); MIC [10]: 8 µg/mL (≈ 13.1 µM); MIC [11]: 2 µg/mL (≈ 3.28 µM); MIC [12]: 4 µg/mL (≈ 6.55 µM); MIC [13]: 2 µg/mL (≈ 3.28 µM); MIC [14]: 4 µg/mL (≈ 6.55 µM) |
